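The compound was tested at five concentrations on cells cultured in 96-well plates, with a 48-hour exposure period. GI50: concentration for 50% inhibition of growth. TGI: concentration producing complete growth inhibition.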
Columns and labels:
Experiment in all cases: NCI anticancer screen, dose series, 48 h
[1] = tested on: NCI-H226 lung
[2] = tested on: U251 CNS
[3] = tested on: UO-31 renal
[4] = tested on: DU-145 prostate
[5] = tested on: NCI/ADR-RES ovarian
[6] = tested on: SF-539 CNS
[7] = tested on: HOP-62 NSCLC
[8] = tested on: TK-10 renal
[9] = tested on: K-562 leukemia
[10] = tested on: HCT-15 colon

| SMILES | GI50 [1] [µM] | TGI [1] [µM] | GI50 [2] [µM] | TGI [2] [µM] | GI50 [3] [µM] | TGI [3] [µM] | GI50 [4] [µM] | TGI [4] [µM] | GI50 [5] [µM] | TGI [5] [µM] | GI50 [6] [µM] | TGI [6] [µM] | GI50 [7] [µM] | TGI [7] [µM] | GI50 [8] [µM] | TGI [8] [µM] | GI50 [9] [µM] | TGI [9] [µM] | GI50 [10] [µM] | TGI [10] [µM] |
| --- | --- | --- | --- | --- | --- | --- | --- | --- | --- | --- | --- | --- | --- | --- | --- | --- | --- | --- | --- | --- |
| Cc1ccc(S(=O)(=O)c2ccsc2N)cc1 | 45.9 | > 100 | > 100 | > 100 | 47.2 | > 100 | > 100 | > 100 | > 100 | > 100 | > 100 | > 100 | > 100 | > 100 | > 100 | > 100 | > 100 | > 100 | > 100 | > 100 |
| C[C@]12CC[C@H]3[C@@H](CCC4=C[C@@H](OC5OCC(OC6OC(CO)C(O)C(O)C6O)C(O)C5O)CC[C@@]43C=O)[C@@]1(O)CCC2C1=CC(=O)OC1 (stereo not given in full) | – | 5.79 | – | 8.84 | – | 3.45 | – | 1.44 | – | 3.28 | – | 1.68 | – | 1.84 | – | 8.19 | – | 3.38 | – | 1.76 |
| O=c1oc2cc(OS(=O)(=O)c3ccccc3)ccc2c2c1CCCCC2 | > 100 | > 100 | 4.51 | > 100 | 8 | > 100 | > 100 | > 100 | 4.53 | > 100 | 6.68 | > 100 | > 100 | > 100 | > 100 | > 100 | 4.06 | > 100 | 3.92 | > 100 |
| N#C/C(=C\c1cccnc1)c1nc2ccccc2o1 | > 100 | > 100 | > 100 | > 100 | 43.1 | > 100 | > 100 | > 100 | > 100 | > 100 | > 100 | > 100 | > 100 | > 100 | > 100 | > 100 | > 100 | > 100 | > 100 | > 100 |
| O=C1NC(O)CCN1C1CC(O)C(CO)O1 (stereo not given) | – | > 100 | – | > 100 | – | > 100 | – | > 100 | – | > 100 | – | > 100 | – | > 100 | – | > 100 | – | > 100 | – | > 100 |
| O=S1(=O)CC(Br)C(Br)C1 (stereo not given) | 1.49 | 11.2 | 7.28 | 23.6 | 3.77 | 14.7 | 4.21 | 15.9 | 5.26 | > 100 | 13.6 | 54.4 | 12.7 | 27.6 | 3.77 | 11.9 | 3.79 | 14.2 | 2.64 | 7.24 |
| S=C(Nc1ccccc1)N1CCn2c1nsc2=Nc1ccccc1 | 61.6 | > 100 | 33 | > 100 | > 100 | > 100 | > 100 | > 100 | > 100 | > 100 | > 100 | > 100 | > 100 | > 100 | 26.6 | 95 | 31.3 | > 100 | 78.2 | > 100 |

Reference: PubChem BioAssay (NCI)
